Experimental data: PMC4860947 (Nature, 2016)

Columns and labels:
C. glabrata [1] = type: in vivo, Candida glabrata; conditions: mice; fluconazole 100 mg/kg/day, 7 days
C. glabrata [2] = experiment: Mouse disseminated fungal burden model; type: in vivo, Candida glabrata; conditions: mice, CgPDR1 wild-type strain; 25 mg/kg fluconazole (low FLU) alone
[3] = system: C. glabrata PDR1 wild-type or PDR1^L280F strains; parameters: species or system Candida glabrata; conditions: in vivo
[4] = system: C. glabrata adherence to CHO-Lec2 cells; experiment: Yeast adherence to CHO-Lec2 epithelial cells; type: cell-based, Candida glabrata; conditions: ketoconazole 40 µM alone, last 15 minutes
[5] = system: C. glabrata strains with wild-type or gain-of-function CgPDR1; type: cell-based, Candida glabrata; conditions: azole alone

| Compound | fungal burden in the bladder and kidney (C. glabrata [1]) | tissue fungal burden (C. glabrata [2]) | survival of G. mellonella larvae [3] | survival of G. mellonella larvae compared to vehicle [3] | relative adherence of PDR1^L280F mutant to epithelial (CHO-Lec2) cells [4] | sensitivity of CgPDR1 wild-type strain to azole on plates [5] |
| --- | --- | --- | --- | --- | --- | --- |
| OC(Cn1cncn1)(Cn1cncn1)c1ccc(F)cc1F [fluconazole] | significantly reduces fungal burden | poorly reduced tissue burden | sensitive to fluconazole alone | did not significantly increase survival | – | – |
| CC(=O)N1CCN(c2ccc(OCC3COC(Cn4ccnc4)(c4ccc(Cl)cc4Cl)O3)cc2)CC1 (stereo not drawn) [ketoconazole] | – | – | – | – | reduced relative adherence to levels comparable to a PDR1 wild-type strain | sensitive |
